# Where two headings read alike, the source gives them in different places.
# Columns and labels:
# HepG2 cells = details: Nature 2010, cited from earlier work
# P. falciparum 3D7 cells = details: Nature 2010, cited from earlier work
# [1] = biological target: T1, Plasmodium falciparum calcium-dependent protein kinase 1 (CDPK1) (Plasmodium falciparum, UniProt P62344); test: CDPK1 Kinase-Glo ATP-consumption screen and dose-response; type: biochemical; details: hits below 1 uM; read-out: CDPK1 IC50
# T1 construct: 6-Histidine (N); made in house
# T1 sequence (P62344 whole entry): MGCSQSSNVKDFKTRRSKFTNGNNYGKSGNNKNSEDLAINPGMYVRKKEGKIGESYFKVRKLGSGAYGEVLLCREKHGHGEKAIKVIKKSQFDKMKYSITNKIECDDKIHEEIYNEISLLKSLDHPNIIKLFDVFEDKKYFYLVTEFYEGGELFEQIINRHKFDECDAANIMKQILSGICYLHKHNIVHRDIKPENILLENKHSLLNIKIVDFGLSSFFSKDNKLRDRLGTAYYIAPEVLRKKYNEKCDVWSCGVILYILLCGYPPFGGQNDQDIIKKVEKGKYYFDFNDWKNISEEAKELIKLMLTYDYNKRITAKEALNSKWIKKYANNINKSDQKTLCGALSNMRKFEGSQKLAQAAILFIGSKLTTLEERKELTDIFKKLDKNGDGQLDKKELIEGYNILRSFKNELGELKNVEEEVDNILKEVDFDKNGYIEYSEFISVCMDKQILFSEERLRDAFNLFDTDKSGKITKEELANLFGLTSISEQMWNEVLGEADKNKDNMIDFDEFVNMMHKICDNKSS
# Protocol: Biochemical assays were performed in white 384-well plates (Nunc). Liquid transfers were done manually with 8-channel pipets. Compounds were initially tested in a single-point screen (final concentration 1 μM). […] The catalytic activity of each kinase was considered proportional to ATP consumed, as determined from measurements of residual [ATP] with the luciferase-based reagent Kinase-Glo (Promega) following incubation. Luminescence (proportional to residual [ATP]) was measured on the plate readers FLx800 (BioTek Instruments, Winooski, VT, USA) and MicroBeta^2 (PerkinElmer, Waltham, MA, USA). Incubation times were chosen to ensure near-complete ATP depletion in the absence of inhibition, thus maximizing the difference in signal between inhibited and uninhibited wells.
# 40 μM Syntide-2 was used as a substrate; BKI-1 [14] was used as a control inhibitor, while reaction mixtures lacking Syntide-2 were included as an additional negative control. Incubation time was 90 minutes. Reactions were terminated by adding excess EGTA (5 mM), which sequesters Ca^2+ and halts calcium-dependent kinase activity.
# DD2 [2] = tested on: DD2; parameters: method as in F.J. Gamo et al., Nature 2010; details: P. falciparum Dd2; downloaded from ChEMBL ref F.J. Gamo et al., Nature 2010; cited from earlier work
# 3D7 PFLDH [3] = tested on: 3D7 PFLDH; parameters: method as in F.J. Gamo et al., Nature 2010; details: downloaded from ChEMBL ref F.J. Gamo et al., Nature 2010; cited from earlier work
# DD2 [4] = tested on: DD2; parameters: method as in F.J. Gamo et al., Nature 2010; details: downloaded from ChEMBL, ref F.J. Gamo et al., Nature 2010; cited from earlier work
# 3D7 PFLDH [5] = tested on: 3D7 PFLDH; parameters: method as in F.J. Gamo et al., Nature 2010; concentration or dose not given beside the values; details: downloaded from ChEMBL, ref F.J. Gamo et al., Nature 2010; cited from earlier work
# [6] = HepG2 cells, downloaded from ChEMBL ref F.J. Gamo et al.
# [7] = P. falciparum 3D7, downloaded from ChEMBL ref F.J. Gamo et al.
# [8] = 3D7, downloaded from ChEMBL, ref F.J. Gamo et al.
SMILES,PCT_INHIB_HEPG2 (HepG2 cells; [6]),PCT_IHB_3D7 (P. falciparum 3D7 cells; [7]),pXC50_3D7 (P. falciparum 3D7 cells; [7]),IC50 [1],PCT_INHB_DD2 (DD2 [2]),PCT_INHIB_3D7_PFLDH (3D7 PFLDH [3]),"PCT_INHIB_HEPG2 (HepG2 cells; HepG2, downloaded from ChEMBL, ref F.J. Gamo et al.)",PCT_IHB_3D7 (P. falciparum 3D7 cells; [8]),pXC50_3D7 (P. falciparum 3D7 cells; [8]),PCT_INHB_DD2 (DD2 [4]),PCT_INHIB_3D7_PFLDH (3D7 PFLDH [5])
Nc1ncc(-c2cn[nH]c2)cc1-c1nc2ccc(F)cc2[nH]1 [TCMDC-133559],38,100,6.137,150 nM,53,0,,,,,
Nc1ncc(-c2cn[nH]c2)cc1-c1nc2ccc(Cl)cc2[nH]1 [TCMDC-133560],46,100,6.098,834 nM,100,0,,,,,
Cc1cccc2[nH]c(-c3cc(-c4cn[nH]c4)cnc3N)nc12 [TCMDC-133561],37,100,6.6562,296 nM,93,0,,,,,
Nc1ncc(-c2cn[nH]c2)cc1-c1nc2cc(Cl)cnc2[nH]1 [TCMDC-133562],40,100,6.039,280 nM,70,1,,,,,
CCn1c(-c2nc(-c3ccnc(N4CCN(C)CC4)c3)cnc2N)nc2cc(S(C)(=O)=O)ccc21 [TCMDC-134155],44,100,6.089,654 nM,76,0,,,,,
CCNC(=O)Nc1ccc(-c2cnc(N)c(-c3nc4ccc(OC)cc4[nH]3)c2)cc1 [TCMDC-135321],51,100,6.302,145 nM,43,1,,,,,
COc1ccc2nc(-c3cc(-c4ccc(NC(C)=O)cc4)cnc3N)[nH]c2c1 [TCMDC-135365],55,93,5.906,501 nM,73,0,,,,,
COc1cccc(Nc2nccc(-c3c(-c4cccc(NC(=O)c5c(F)cccc5F)c4)nn4ccccc34)n2)c1 [TCMDC-135508],35,98,6.749,87 nM,98,0,,,,,
CS(=O)(=O)Cc1ccc(Nc2nccc(-c3c(-c4cccc(NC(=O)c5c(F)cccc5F)c4)nn4ncccc34)n2)cc1 [TCMDC-135681],86,97,6.79,11 nM,93,1,,,,,
CCn1c(-c2nonc2N)nc2c(-c3cccc(NC(=O)Nc4ccc(Cl)cc4)c3)ncc(OCCCN)c21.O=C(O)C(F)(F)F [TCMDC-136152],26,96,6.082,44 nM,72,0,,,,,
Cl.Oc1cc(-c2nc(-c3ccccc3)[nH]c2-c2ccncc2)ccc1Cl [TCMDC-139660],64,96,6.089,975 nM,91,0,,,,,
CC(C)(CNCc1ccccc1)c1nc(-c2ccc(Cl)c(O)c2)c(-c2ccncc2)[nH]1.Cl [TCMDC-140389],77,100,6.27,190 nM,99,0,,,,,
COc1ccc(CNCC(C)(C)c2nc(-c3ccc(Cl)c(O)c3)c(-c3ccncc3)[nH]2)cc1.Cl [TCMDC-140538],76,100,6.447,186 nM,99,1,,,,,
CC(C)(CNCc1ccc(Cl)cc1)c1nc(-c2ccc(Cl)c(O)c2)c(-c2ccncc2)[nH]1.Cl [TCMDC-140548],86,100,6.322,257 nM,98,5,,,,,
CC(C)(CNCc1ccc(F)c(F)c1)c1nc(-c2ccc(Cl)c(O)c2)c(-c2ccncc2)[nH]1.Cl [TCMDC-140672],74,100,6.181,451 nM,89,2,,,,,
COc1cc(-c2nc(C(C)(C)CN)[nH]c2-c2ccncc2)ccc1Br.Cl [TCMDC-140674],17,97,6.114,159 nM,95,1,,,,,
CC(C)(NCc1ncc[nH]1)c1nc(-c2ccc(Cl)c(O)c2)c(-c2ccncc2)[nH]1.Cl [TCMDC-140686],42,95,,144 nM,97,3,,,,,
COc1cccc(CNCC(C)(C)c2nc(-c3ccc(Cl)c(O)c3)c(-c3ccncc3)[nH]2)c1.Cl [TCMDC-140687],74,100,6.159,275 nM,98,0,,,,,
CC(C)(CNCc1ccc(Cl)c(Cl)c1)c1nc(-c2ccc(Cl)c(O)c2)c(-c2ccncc2)[nH]1.Cl [TCMDC-140688],43,100,6.121,539 nM,97,0,,,,,
CN1CCC=C(C(=O)NCC(C)(C)c2nc(-c3ccc(Cl)c(O)c3)c(-c3ccncc3)[nH]2)C1.Cl [TCMDC-140700],39,96,6,213 nM,96,0,,,,,
CC(C)(CNCc1ccc(OC(F)(F)F)cc1)c1nc(-c2ccc(Cl)c(O)c2)c(-c2ccncc2)[nH]1.Cl [TCMDC-140708],38,100,6.263,438 nM,99,0,,,,,
Cc1ccc(Nc2nccc(N(C)c3ccc4c(c3)nc(NC(=O)Cc3ccc(Cl)c(Cl)c3)n4C)n2)cc1S(N)(=O)=O.O=C(O)C(F)(F)F [TCMDC-141965],,,,345 nM,,,71%,94%,5.954,60%,0%
